Results reported in patent publication US20240109917A1 (ACTELION PHARMACEUTICALS LTD, priority 2020, published 2024).

Tests used:
PDGFRβ = PDGFRβ (Rattus norvegicus (Rat), UniProt Q05030); test: PDGFRβ Cellular Assay (PDGFRb P-Y751 HTRF in A10 cells stimulated with PDGF-BB); format: cell-based; settings: read-out: PDGFR Cellular IC50
Method in brief: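 Phospho-Y751 PDGFRβ was measured by HTRF in lysates of A10 rat cells. Cells received compound for 3 hours before PDGF-BB stimulation (100 ng/mL working stock).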

VEGFR2, unphosphorylated = VEGFR2, unphosphorylated (Homo sapiens (Human), UniProt P35968); test: VEGFR ADP GLO Assay; format: biochemical
Chain of VEGFR2, unphosphorylated (P35968 20-1356): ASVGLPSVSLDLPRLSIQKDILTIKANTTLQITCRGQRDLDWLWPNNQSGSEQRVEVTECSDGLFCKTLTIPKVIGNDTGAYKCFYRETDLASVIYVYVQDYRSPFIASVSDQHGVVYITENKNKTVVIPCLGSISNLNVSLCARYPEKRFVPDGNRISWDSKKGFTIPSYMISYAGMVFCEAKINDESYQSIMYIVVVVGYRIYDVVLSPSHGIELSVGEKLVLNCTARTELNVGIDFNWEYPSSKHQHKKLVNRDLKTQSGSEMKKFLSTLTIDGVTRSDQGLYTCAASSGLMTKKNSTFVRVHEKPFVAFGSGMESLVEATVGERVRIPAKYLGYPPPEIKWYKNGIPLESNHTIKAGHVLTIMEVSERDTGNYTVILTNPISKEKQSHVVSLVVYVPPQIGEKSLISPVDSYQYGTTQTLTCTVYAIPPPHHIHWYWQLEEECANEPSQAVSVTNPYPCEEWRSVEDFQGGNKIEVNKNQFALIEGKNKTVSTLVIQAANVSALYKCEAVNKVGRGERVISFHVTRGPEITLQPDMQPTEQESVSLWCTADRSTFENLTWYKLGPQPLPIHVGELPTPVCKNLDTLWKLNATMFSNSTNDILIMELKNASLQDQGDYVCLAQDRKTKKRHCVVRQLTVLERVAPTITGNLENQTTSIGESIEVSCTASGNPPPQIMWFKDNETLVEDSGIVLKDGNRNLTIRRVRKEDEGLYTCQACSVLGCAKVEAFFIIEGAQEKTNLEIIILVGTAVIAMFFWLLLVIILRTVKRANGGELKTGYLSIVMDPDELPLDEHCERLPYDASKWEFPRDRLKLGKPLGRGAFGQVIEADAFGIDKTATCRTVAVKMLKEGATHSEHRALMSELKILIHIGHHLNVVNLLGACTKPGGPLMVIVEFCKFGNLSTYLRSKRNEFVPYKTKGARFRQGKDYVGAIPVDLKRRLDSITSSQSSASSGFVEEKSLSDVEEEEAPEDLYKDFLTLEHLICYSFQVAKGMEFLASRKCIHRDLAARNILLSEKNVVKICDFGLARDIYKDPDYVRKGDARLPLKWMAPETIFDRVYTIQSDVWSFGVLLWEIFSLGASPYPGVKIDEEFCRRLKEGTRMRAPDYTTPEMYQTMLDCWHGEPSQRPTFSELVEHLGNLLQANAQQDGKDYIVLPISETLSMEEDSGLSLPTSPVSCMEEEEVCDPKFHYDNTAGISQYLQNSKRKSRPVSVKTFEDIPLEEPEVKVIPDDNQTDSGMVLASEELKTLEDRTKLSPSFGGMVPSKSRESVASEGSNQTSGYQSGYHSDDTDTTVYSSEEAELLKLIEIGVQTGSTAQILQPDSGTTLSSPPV

Chain of PDGFRβ (Q05030 32-1097): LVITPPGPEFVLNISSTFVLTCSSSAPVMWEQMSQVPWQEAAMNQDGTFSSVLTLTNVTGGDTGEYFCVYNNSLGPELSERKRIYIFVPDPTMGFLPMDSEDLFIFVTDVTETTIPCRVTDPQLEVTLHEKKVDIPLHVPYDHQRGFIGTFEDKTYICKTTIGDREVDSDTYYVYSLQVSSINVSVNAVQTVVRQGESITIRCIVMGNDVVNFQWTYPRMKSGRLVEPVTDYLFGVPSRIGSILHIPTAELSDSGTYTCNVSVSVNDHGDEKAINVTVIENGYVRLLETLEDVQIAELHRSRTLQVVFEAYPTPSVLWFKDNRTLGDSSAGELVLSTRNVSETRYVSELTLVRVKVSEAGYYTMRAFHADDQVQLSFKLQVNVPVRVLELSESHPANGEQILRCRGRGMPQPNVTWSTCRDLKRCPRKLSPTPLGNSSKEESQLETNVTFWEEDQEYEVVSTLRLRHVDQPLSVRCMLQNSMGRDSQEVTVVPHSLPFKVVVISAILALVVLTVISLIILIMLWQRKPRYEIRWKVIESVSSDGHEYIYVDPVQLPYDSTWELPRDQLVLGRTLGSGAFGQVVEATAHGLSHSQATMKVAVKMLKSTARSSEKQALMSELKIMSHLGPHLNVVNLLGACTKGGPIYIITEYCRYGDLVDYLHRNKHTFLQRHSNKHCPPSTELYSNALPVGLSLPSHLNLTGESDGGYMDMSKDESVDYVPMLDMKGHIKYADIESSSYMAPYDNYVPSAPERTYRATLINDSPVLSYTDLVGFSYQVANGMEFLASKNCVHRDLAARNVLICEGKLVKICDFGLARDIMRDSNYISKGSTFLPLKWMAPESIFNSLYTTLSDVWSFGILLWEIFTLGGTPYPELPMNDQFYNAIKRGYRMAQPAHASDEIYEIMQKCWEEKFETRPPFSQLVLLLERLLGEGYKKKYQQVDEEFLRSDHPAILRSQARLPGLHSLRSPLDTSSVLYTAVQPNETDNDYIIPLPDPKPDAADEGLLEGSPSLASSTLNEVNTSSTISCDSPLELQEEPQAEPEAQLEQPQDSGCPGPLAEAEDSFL

| SMILES | IC50 (PDGFRβ) [nM] | IC50 (VEGFR2, unphosphorylated) [µM] |
| --- | --- | --- |
| COCCn1cc(-c2cn3ncc(C(=O)Nc4cc(NC(=O)C5CCN(C(C)C)C5)cnc4C)c3s2)cn1 (stereo not drawn) [Example 345, N-(5-(1-isopropylpyrrolidine-3-carboxamido)-2-methylpyridin-3-yl)-2-(1-(2-methoxyethyl)-1H-pyrazol-4-yl)pyrazolo[5,1-b]thiazole-7-carboxamide] | 222 | > 7.5 |
| COCCn1cc(-c2cn3ncc(C(=O)Nc4cc(NC(=O)CN5CCCCCC5)cnc4C)c3s2)cn1 [Example 339, N-(5-(2-(azepan-1-yl)acetamido)-2-methylpyridin-3-yl)-2-(1-(2-methoxyethyl)-1H-pyrazol-4-yl)pyrazolo[5,1-b]thiazole-7-carboxamide] | 2.6 | > 7.5 |
| COCCn1cc(-c2cn3ncc(C(=O)Nc4cc(NC(=O)CN5CC6CCC5CC6)cnc4C)c3s2)cn1 [Example 331, N-(5-(2-(2-azabicyclo[2.2.2]octan-2-yl)acetamido)-2-methylpyridin-3-yl)-2-(1-(2-methoxyethyl)-1H-pyrazol-4-yl)pyrazolo[5,1-b]thiazole-7-carboxamide] | 2.7 | > 7.5 |
